# Test results: patent US20110159019A1, “2,4-DIAMINOPYRIMIDINE COMPOUND” (priority 2008, published 2011)
# Target: T1, Cytochrome P450 (CYP3A4) (Homo sapiens, UniProt P08684)
# T1 construct: human liver microsome (0.1 mg protein/mL); from tissue; host or cells: human liver microsomes
# Test: Measurement of cytochrome P450 (CYP3A4) enzyme inhibition activity in human liver microsome (inhibition tests I and II, midazolam substrate)
# Assay type: in vitro ADME
# Details: for I (%) Remaining Rate I: inhibition test I: 5 μM test compound, 2 μM midazolam, human liver microsome, 37° C. 20 minutes, no preincubation; for II (%) Remaining Rate II: inhibition test II: 5 μM test compound preincubated 30 minutes with human liver microsome and NADPH, then 2 μM midazolam 20 minutes, relative to test I
# Procedure: Test Method 3: Measurement of Cytochrome P450 (CYP3A4) Enzyme Inhibition Activity i) Inhibition Test I (Calculation of Remaining Rate I)
# Using a 96-well plate, 2 μM of a substrate (midazolam), 5 μM of a test compound, and human liver microsome (0.1 mg protein/mL) were incubated at 37° C. for 20 minutes in a total amount of 150 μL of a 100 mM phosphate buffer (pH 7.4) containing 0.1 mM EDTA and 1 mM NADPH. Then, the reaction was stopped by adding 130 μl of an aqueous solution containing 80% acetonitrile. Thereafter, the samples were analyzed by LC/MS/MS, and the remaining rates I were calculated using the following equation 1.
# Remaining Rate I(%)=Ai,I/Ao,I×100 (Equation 1)
# Ai, I=Amount of produced metabolite after reaction in the presence of the test compound in the inhibition test I Ao, I=Amount of produced metabolite after reaction in the absence of the test compound in the inhibition test I ii) Inhibition Test II (Calculation of Remaining Rate II)
# Using a 96-well plate, 5 μM of a test compound and human liver microsome (0.1 mg protein/mL) were incubated at 37° C. for 30 minutes in a total amount of 145 μL of a 100 mM phosphate buffer (pH=7.4) containing 0.1 mM EDTA and 1 mM NADPH. Then, 2 μM of midazolam as the substrate was added thereto at a total amount of 150 μL of and incubated at 37° C. for 20 minutes. After the incubation, the reaction was stopped by adding 130 μL of an aqueous solution containing 80% acetonitrile. Thereafter, the samples were analyzed by LC/MS/MS, and the remaining rate II was calculated using the following equation 2.
# Remaining Rate II(%)=Ai,II/Ao,II/(Ai,I/Ao,I)×100 (Equation 2)
# Ai, II=Amount of produced metabolite after reaction in the presence of the test compound in the inhibition test II […]=Amount of produced metabolite after reaction in the absence of the test compound in the inhibition test II […]
# Ex represents No. of the Example Compounds as described below.
# T1 sequence (P08684 whole entry): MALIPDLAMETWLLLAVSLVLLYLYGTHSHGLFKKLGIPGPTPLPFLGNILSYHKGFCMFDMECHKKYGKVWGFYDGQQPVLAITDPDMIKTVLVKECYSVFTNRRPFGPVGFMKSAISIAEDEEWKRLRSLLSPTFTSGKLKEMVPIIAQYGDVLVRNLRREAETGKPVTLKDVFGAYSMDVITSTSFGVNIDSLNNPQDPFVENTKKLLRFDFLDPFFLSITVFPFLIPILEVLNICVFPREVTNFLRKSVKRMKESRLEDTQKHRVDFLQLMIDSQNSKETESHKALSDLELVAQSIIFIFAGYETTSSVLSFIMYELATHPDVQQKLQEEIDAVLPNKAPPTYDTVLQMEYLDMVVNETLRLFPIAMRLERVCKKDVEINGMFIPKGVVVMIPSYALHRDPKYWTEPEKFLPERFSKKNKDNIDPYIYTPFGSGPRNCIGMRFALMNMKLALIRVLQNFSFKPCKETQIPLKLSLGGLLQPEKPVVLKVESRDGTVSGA
structure (smiles),measurement,value
CNC1CCC(N[C@@H]2[C@@H]3CC4C[C@H]2C[C@@](CNc2nc(NCc5ccccc5Cl)ncc2C#N)(C4)C3)CC1 (relative stereo) [Example 316],I (%) Remaining Rate I,85%
same,II (%) Remaining Rate II,84%
CN1CCC(N[C@@H]2[C@@H]3CC4C[C@H]2C[C@@](CNc2nc(NCc5ccccc5Cl)ncc2C#N)(C4)C3)CC1 (relative stereo) [Example 248],I (%) Remaining Rate I,88%
same,II (%) Remaining Rate II,82%
CSc1ccccc1CNc1ncc(C#N)c(NC[C@]23CC4C[C@H](C2)[C@@H](NC2CCNCC2)[C@@H](C4)C3)n1 (relative stereo) [Example 290],I (%) Remaining Rate I,85%
same,II (%) Remaining Rate II,88%
C[C@]1(O)CC[C@H](CN[C@@H]2[C@@H]3CC4C[C@H]2C[C@@](CNc2nc(NCc5ccccc5Cl)ncc2C#N)(C4)C3)CC1 (relative stereo) [Example 370],I (%) Remaining Rate I,81%
same,II (%) Remaining Rate II,85%
CSc1ccccc1CNc1ncc(C#N)c(NC[C@]23CC4C[C@H](C2)C(NC[C@H]2CC[C@H](CO)CC2)[C@@H](C4)C3)n1 (stereo partly drawn) [Example 229],I (%) Remaining Rate I,80%
same,II (%) Remaining Rate II,95%
CNC1CCC(N[C@@H]2[C@@H]3CC4C[C@H]2C[C@@](CNc2nc(NCc5ccccc5Cl)ncc2C#N)(C4)C3)CC1 (stereo partly drawn) [Example 315],I (%) Remaining Rate I,85%
same,II (%) Remaining Rate II,86%
COc1ncccc1CNc1ncc(C#N)c(NC[C@]23CC4C[C@H](C2)C(N[C@H]2CC[C@H](CO)CC2)[C@@H](C4)C3)n1 (relative stereo) [Example 232],I (%) Remaining Rate I,88%
same,II (%) Remaining Rate II,94%
CSc1ccccc1CNc1ncc(C#N)c(NC[C@]23CC4C[C@H](C2)[C@@H](NC[C@H]2CC[C@H](O)CC2)[C@@H](C4)C3)n1 [Example 263],I (%) Remaining Rate I,91%
same,II (%) Remaining Rate II,87%
COc1ccccc1CNc1ncc(C#N)c(NC[C@]23CC4C[C@H](C2)[C@@H](NCC[C@@H](O)CO)[C@@H](C4)C3)n1 (relative stereo) [Example 352],I (%) Remaining Rate I,94%
same,II (%) Remaining Rate II,81%
N#Cc1cnc(NCc2cnccc2Cl)nc1NC[C@]12CC3C[C@H](C1)[C@@H](NC1CCC(O)CC1)[C@@H](C3)C2 (stereo partly drawn) [Example 251],I (%) Remaining Rate I,75%
same,II (%) Remaining Rate II,85%
N#Cc1cnc(NCc2ccccc2OC(F)(F)F)nc1NC[C@]12CC3C[C@H](C1)[C@@H](NCC1CCNCC1)[C@@H](C3)C2 (relative stereo) [Example 329],I (%) Remaining Rate I,92%
same,II (%) Remaining Rate II,95%
CC1(N)CCC(N[C@@H]2[C@@H]3CC4C[C@H]2C[C@@](CNc2nc(NCc5ccccc5Cl)ncc2C#N)(C4)C3)CC1 (relative stereo) [Example 314],I (%) Remaining Rate I,85%
same,II (%) Remaining Rate II,84%
"N#Cc1cnc(NCc2ccccc2Cl)nc1NC[C@]12CC3C[C@H](C1)[C@@H](N[C@H]1CC[C@@H](NCCO)CC1)[C@@H](C3)C2 (relative stereo) [Example 220, rel-2-[(2-chlorobenzyl)amino]-4-({[(1R,3S,4R,5R)-4-({cis-4-[(2-hydroxyethyl)amino]cyclohexyl}amino)adamantan-1-yl]methyl}amino)pyrimidine-5-carbonitrile]",I (%) Remaining Rate I,82%
same,II (%) Remaining Rate II,85%
"CC(=O)N1CCC(N[C@H]2CC[C@@H](N[C@@H]3[C@@H]4CC5C[C@H]3C[C@@](CNc3nc(NCc6ccccc6Cl)ncc3C#N)(C5)C4)CC2)CC1 (relative stereo) [Example 281, rel-4-({[(1R,3S,4R,5R)-4-({cis-4-[(1-acetylpiperidin-4-yl)amino]cyclohexyl}amino)adamantan-1-yl]methyl}amino)-2-[(2-chlorobenzyl)amino]pyrimidine-5-carbonitrile]",I (%) Remaining Rate I,89%
same,II (%) Remaining Rate II,83%
CSc1ccccc1CNc1ncc(C#N)c(NC[C@]23CC4C[C@H](C2)C(NC[C@H]2CC[C@H](O)CC2)[C@@H](C4)C3)n1 (relative stereo) [Example 228],I (%) Remaining Rate I,79%
same,II (%) Remaining Rate II,91%
N#Cc1cnc(NCc2ccccc2Cl)nc1NC[C@]12CC3C[C@H](C1)[C@@H](NCC1CCN(CCO)CC1)[C@@H](C3)C2 (relative stereo) [Example 216],I (%) Remaining Rate I,92%
same,II (%) Remaining Rate II,90%
N#Cc1cnc(NCc2ccccc2Cl)nc1NC[C@]12CC3C[C@H](C1)[C@@H](N[C@H]1CC[C@@H](NC4CCOCC4)CC1)[C@@H](C3)C2 (relative stereo) [Example 282],I (%) Remaining Rate I,81%
same,II (%) Remaining Rate II,91%
COc1ncccc1CNc1ncc(C#N)c(NC[C@]23CC4C[C@H](C2)[C@@H](NC2CCC(O)CC2)[C@@H](C4)C3)n1 (relative stereo) [Example 252],I (%) Remaining Rate I,85%
same,II (%) Remaining Rate II,80%
"CSc1ccccc1CNc1ncc(C#N)c(NC[C@]23CC4C[C@H](C2)[C@@H](NC2CCC(O)CC2)[C@@H](C4)C3)n1 (relative stereo) [Example 68, rel-4-[({(1S,3R,4S,5S)-4-[(4-hydroxycyclohexyl)amino]adamantan-1-yl}methyl)amino]-2-{[2-(methylsulfanyl)benzyl]amino}pyrimidine-5-carbonitrile]",I (%) Remaining Rate I,82%
same,II (%) Remaining Rate II,90%
COc1ncccc1CNc1ncc(C#N)c(NC[C@]23CC4C[C@H](C2)[C@@H](NC[C@H]2CC[C@H](O)CC2)[C@@H](C4)C3)n1 (relative stereo) [Example 345],I (%) Remaining Rate I,94%
same,II (%) Remaining Rate II,81%
N#Cc1cnc(NCc2ccccc2Cl)nc1NC[C@]12CC3C[C@H](C1)[C@@H](NC1CCN(CCO)CC1)[C@@H](C3)C2 [Example 209],I (%) Remaining Rate I,79%
same,II (%) Remaining Rate II,92%
CCN1CCC(N[C@@H]2[C@@H]3CC4C[C@H]2C[C@@](CNc2nc(NCc5ccccc5Cl)ncc2C#N)(C4)C3)CC1 [Example 249],I (%) Remaining Rate I,82%
same,II (%) Remaining Rate II,83%
N#Cc1cnc(NCc2ccccc2Cl)nc1NC[C@]12CC3C[C@H](C1)[C@@H](NC1CCC(N4CCC[C@@H]4CO)CC1)[C@@H](C3)C2 (relative stereo) [Example 238],I (%) Remaining Rate I,75%
same,II (%) Remaining Rate II,81%
CSc1ncccc1CNc1ncc(C#N)c(NC[C@]23CC4C[C@H](C2)[C@@H](NC2CCC(O)CC2)[C@@H](C4)C3)n1 (relative stereo) [Example 258],I (%) Remaining Rate I,88%
same,II (%) Remaining Rate II,90%
COCCN1CCC(N[C@@H]2[C@@H]3CC4C[C@H]2C[C@@](CNc2nc(NCc5ccccc5Cl)ncc2C#N)(C4)C3)CC1 (relative stereo) [Example 210],I (%) Remaining Rate I,77%
same,II (%) Remaining Rate II,94%
N#Cc1cnc(NCc2ccccc2Cl)nc1NC[C@]12CC3C[C@H](C1)[C@@H](NC1CCN(CCF)CC1)[C@@H](C3)C2 (relative stereo) [Example 212],I (%) Remaining Rate I,81%
same,II (%) Remaining Rate II,85%
CSc1ccccc1CNc1ncc(C#N)c(NC[C@]23CC4C[C@H](C2)[C@@H](NC[C@H]2CC[C@H](CO)CC2)[C@@H](C4)C3)n1 (relative stereo) [Example 339],I (%) Remaining Rate I,78%
same,II (%) Remaining Rate II,94%
N#Cc1cnc(NCc2ccccc2Cl)nc1NC[C@]12CC3C[C@H](C1)[C@@H](NC1CCN(C4CCOCC4)CC1)[C@@H](C3)C2 (relative stereo) [Example 266],I (%) Remaining Rate I,83%
same,II (%) Remaining Rate II,99%
N#Cc1cnc(NCc2ccccc2Cl)nc1NC[C@]12CC3C[C@H](C1)[C@@H](NC1CCC(O)CC1)[C@@H](C3)C2 (stereo partly drawn) [Example 95],I (%) Remaining Rate I,84%
same,II (%) Remaining Rate II,81%
COc1ncccc1CNc1ncc(C#N)c(NC[C@]23CC4C[C@H](C2)[C@@H](NC[C@H]2CC[C@H](CO)CC2)[C@@H](C4)C3)n1 (relative stereo) [Example 343],I (%) Remaining Rate I,78%
same,II (%) Remaining Rate II,91%
